Experimental data reported in ChEMBL document CHEMBL1138745, “Structural basis for the potent antisickling effect of a novel class of five-membered heterocyclic aldehydic compounds” (2004).

Key:
Format in all cases: functional
Settings in all cases: Homo sapiens
[1] = Percent inhibition of sickling of sickle red blood (SS) cells under 4% oxygen was evaluated at 5 mM concentration
[2] = Percent inhibition of sickling of sickle red blood (SS) cells under 4% oxygen was evaluated at 2 mM concentration
[3] = Percent inhibition of sickling of sickle red blood (SS) cells under 4% oxygen was evaluated at 1 mM concentration

Row | SMILES | inhibition at 5000 µM [1] | inhibition at 2000 µM [2] | inhibition at 1000 µM [3]
1 | COc1cc(C=O)ccc1O [VANILLIN] | 20% |  | 
2 | O=Cc1ccc(CO)o1 [AES-103] | 90% | 42% | 13%
3 | O=Cc1ccco1 [FURFURAL] | 30% | 0% | 0%
